The text below walks through data of patent US20260240923A1, “COMPOSITION COMPRISING BIFIDOBACTERIUM ANIMALIS SUBSP. LACTIS STRAIN AND 2’-FUCOSYLLACTOSE” (Chr. Hansen A/S, priority 2023, published 2026).

The subject of this test is human PBMCs. The experiment in a line: Cytokine secretion from human PBMCs, homeostatic and Poly (I:C) challenged conditions (Example 6). It is filed as cell-based. Conditions: homeostatic (unchallenged) conditions, 20 hrs; bacteria grown on 2′FL; 2′FL 2%.

Turning to 2′-Fucosyllactose [2′FL], the IFN-γ secretion entry is “did not induce secretion” and the IL-10 secretion entry is “did not induce secretion”.
